From ChEMBL document CHEMBL3507680, “University of Dundee, Gates Library screen for HepG2 cell viability”

Assay: Human HepG2 cell viability assay in 384 well format
Type: toxicity, cell-based
Design: dose 125 nL, time 70.5 hour; concentration not given beside the values
Settings: HepG2 cells, read-out: Inhibition

| SMILES | cytotoxicity at 70.5 h |
| --- | --- |
| CCC(CO)N(Cc1cccnc1)Cc1ccc(-c2ccn[nH]2)s1 (stereo unspecified) | -7.15% |
| NC1(CN2CCOCC2)CCCCC1 | -2.02% |
| COc1ccc(CN2C[C@@H]3OCCN(c4ncccn4)[C@@H]3C2)cc1 | -7.28% |
| COCCn1c(-c2cccc(OC)c2)cnc1NC(=O)NC1CCCC1 | 6.84% |
| CN(C(=O)OC(C)(C)C)C1CCN(C(=O)c2ccc(Cl)o2)C1 (stereo unspecified) | -3.64% |
| CCCC(C)(C)NC(=O)c1cnc(CC)s1 | -1.12% |
| Cc1nc(CNC(=O)Nc2cc(F)ccc2N2CCN(C)CC2)no1 | -2.28% |
| O=C(c1csc(-c2cnccn2)n1)N1CCCC1Cn1cccn1 (stereo unspecified) | 2.23% |
| N#Cc1ccccc1C(=O)N1C[C@@H](CN2CCOCC2)[C@@H](CO)C1 | -12% |
| CCOCC1CN(Cc2ccncc2)Cc2nn(C)cc21 (stereo unspecified) | -7.15% |
| O=S(=O)(N(Cc1ccccn1)C1CC1)N1CCCC1c1ccco1 (stereo unspecified) | -8.96% |
| CNC(=O)C1(CCCc2ccccn2)CCN1Cc1coc(C)n1 (stereo unspecified) | 14.6% |
| O=C(CN(Cc1cccs1)c1ccc(F)cc1)NC1CCOCC1 | -1.98% |
| NC(=O)CN1CCc2c(Br)ccc(F)c2C1 | 3.38% |
| CC(C)(C)OC(=O)N1CCC(C(=O)NC2CCS(=O)(=O)C2)CC1 (stereo unspecified) | -6.28% |
| CCNC(=O)NCc1ccccc1NS(=O)(=O)c1ccccc1 | -10.5% |
| CC(Cn1cccn1)NC(=O)c1cccs1 (stereo unspecified) | -9.89% |
| O=C(c1ccc2cc[nH]c2c1)N1CCCN(Cc2cscn2)CC1 | -2.03% |
| Cc1cnccc1N1CCCN(Cc2ccc(-c3cc[nH]n3)o2)CC1 | -5.27% |
| CC(C)OCCCN(CC(=O)N1CCNCC1)C(=O)c1cccc(Cl)c1 | -18.5% |
| CN1CCN(C(=O)c2cc3c(s2)CCN3C(=O)C2CC2)CC1 | -1.1% |
| CSc1nnc(CC2CCN(C(=O)Cc3ccncc3)CC2)n1C | -16.8% |
| Cc1nc(C)n(CC2CCCN2CCCc2ccccc2)n1 (stereo unspecified) | -6.68% |

| SMILES | cytotoxicity at 70.5 h |
| --- | --- |
| O=C(Nc1ccccc1)N1CCc2nc(C(=O)N3CCCC3)sc2CC1 | -2.49% |
| CC(C)N1[C@H](CN2CCCC2)C[C@@H]2CN(Cc3ccoc3)CC[C@@H]21 | -10% |
| CC(=O)NCCC1CCN(c2nc(C(C)(C)C)nc3c2cnn3C)CC1 | -1.1% |
| Nc1cncc(C(=O)N2Cc3ccccc3OC3(CCOCC3)C2)c1 | 7.99% |
| Cc1cc(C(=O)NC(C)c2nnn[nH]2)c2ccc(C)c(C)c2n1 (stereo unspecified) | 34.8% |
| Cc1ncc(C)c(N2Cc3cnn(Cc4ccc(F)cc4)c3C2)n1 | 13% |
| CC(C(=O)N1CCCCC1)N1CCN(c2nccs2)CC1 (stereo unspecified) | 2.12% |
| CN(C(=O)CN1CCCc2cc(F)cc(F)c21)c1ccccc1 | -16.8% |
| COCCN(Cc1ccc(F)cc1Cl)C(=O)c1cc(C)no1 | -1.27% |
| CCCOCCn1ncc(N2CCCC2)cc1=O | -1.75% |
| CN(Cc1cn2c(n1)CN(C(N)=O)CC2)Cc1ccco1 | -1.71% |
| Nc1nccc(C2CCCN(CC3CC3)C2)n1 (stereo unspecified) | -4.18% |
| COCc1ncn2c1CN(C(=O)c1ccc3ccccc3n1)CC2 | 6.36% |
| CCCc1nc(CN2CCCC2c2cnn(C)c2)cs1 (stereo unspecified) | 13% |
| COc1ccc(OC)c(NC(=O)c2cc3c([nH]c2=O)CCCC3=O)c1 | -4.78% |
| CCCc1cc(C(=O)NCCN2C(=O)c3ccccc3C2=O)[nH]n1 | -8.43% |
| CCc1nnsc1C(=O)N(C)Cc1ccco1 | -1.63% |
| CCc1cc(=O)[nH]c(-c2ccc(NCCC(C)O)nc2)n1 (stereo unspecified) | -5.98% |
| COc1c(CNCC(c2cccc(F)c2)N(C)C)c(C(C)C)nn1C (stereo unspecified) | 12.7% |
| CN1CCCN(Cn2nc(-c3ccccc3F)ccc2=O)CC1 | -5.91% |
| CC(CNC(=O)c1cc(C2CC2)nc2c1cnn2C)Cn1cccn1 (stereo unspecified) | -6.63% |
| CCc1ccccc1C(=O)N1CCN(S(C)(=O)=O)[C@@H](C)C1 | -9.19% |
| CN(C)[C@H]1CCCCN(Cc2ccccc2Cn2cccn2)C1 | 2.32% |
